According to publication PMC11940764 (2025):

Legend:
[1] = system: poly(A)·poly(U) (RNA, polymer) A/U; assay: fluorescence titration; CD (exciton-coupled ICD); settings: fluorescence: TE buffer pH 8.0, dye 1 µM; CD: phosphate buffer 10 mM pH 7.5; no Kb given
poly(A) (RNA, polymer) A = assay: fluorescence titration, site-independent model; settings: TE buffer (Tris-HCl 10 mM, EDTA 1 mM) pH 8.0; dye 1 µM; unit not given

- binding [1]: yes
- Kb (poly(A) (RNA, polymer) A): 9.5 × 10^6
SMILES: COc1cc2c(/C=C3/Sc4ccccc4N3C)cc[n+](C)c2cc1OC
